Assay [1] has as its system UM-UC-3 tumors. The assay is classed as in vivo, mice. The following applies: mg/kg/day: PM00104 0.90 IV, cisplatin 5 IP, gemcitabine 180 IP, paclitaxel 15 IP. The protocol:
(§1) Female athymic nude mice (Harlan Sprague Dawley, Madison, Wis.) were utilized for all experiments. Animals were housed in ventilated rack caging with food and water ad libitum. The mice were acclimated for at least 5 days prior to tumor implantation with a tumor cell suspension.
The tumor model used in these studies was UM-UC-3 cell line, which was obtained from the ATCC (Manassas, Va.).
UM-UC-3 cells were grown in minimum essential medium (Eagle's) supplemented with 10% FBS, 1.5 g/L sodium bicarbonate, 0.1 mM non-essential amino acids, 1 mM sodium pyruvate, and 2 mM L-glutamine. Each animal was implanted SC on the right flank, using a trochar and 1 cc syringe, with 5×10^6 UM-UC-3 cells, from in vitro passage 17, in a 0.2 mL suspension of 50% Matrigel and 50% serum free medium, without antibiotics. Bacterial cultures were performed on aliquots of the cells prepared for implantation.
Treatments were initiated on DPI 15.
(§2) Tumor size measurements were recorded twice weekly from the treatment initiation until the termination of the study.
(§3) Mean, standard deviation and standard error of the mean were determined for tumor volume for all animal groups at all assessments. Student's t test was performed on tumor volumes at each measurement day, including at the end of the study, to determine whether there were any statistically significant differences between combination treatment groups and single monotherapy treatment groups.

The subject of assay [2] is MCF-7 (breast cancer) cell line. In words: IC50 determination, MIT (tetrazolium) assay, 72 h (Example 18). Format: cell-based. The following applies: Homo sapiens, MCF7; MCF-7, 72 hours of drug exposure. The protocol:
(§4) Before plating, cell cultures were trypsinized and cell number estimated using an automated flow cytometer.
(§5) Cells were harvested and seeded in 96 well microtiter plates at the appropriate cell density (5,000-10,000 cells) in 150 μL of media and incubated for 24 hours to allow the cells to attach before drug addition.
(§6) After the incubation period (72 hours), 50 μL of MIT solution was added to each microtiter well and incubated for further 8 hours at 37° C. The culture medium was then removed and 50 μl, of DMSO were added to dissolve the MIT crystals. Optical densities were read at 540 nm on spectrophotometer microplate reader.
(§7) IC50 values were calculated from an average of two to four assays for each of the test agents.

Assay [3] concerns MDA-MB-231 (breast cancer) cell line. The assay is described as above. The assay is classed as cell-based. The following applies: Homo sapiens; MDA-MB-231, 72 hours of drug exposure. As to the method:
as §4, §5, §6, §7

In assay [4] the test system is MIA PaCa-2 tumors. The assay is classed as in vivo, mice. To be noted: mg/kg/day: PM00104 0.90 IV.
Excerpt: as §1
The tumor model used in these studies was MIAPaCA-2 cell line, which was obtained from the ATCC (Manassas, Va.).
Each animal was implanted subcutaneously (SC) on the right flank, using a trochar, with 1×10^7 MIAPaCA-2 cells, from in vitro passage 18, in a 0.2 mL suspension of 50% Matrigel/50% serum free medium, without antibiotics. Matrigel is a biological extracellular matrix that is liquid at 4° C. and solid at 37° C., and it promotes tumor growth by maintaining the cells in close association in a localized area. Bacterial cultures were performed on aliquots of the cells prepared for implantation.
Tumor measurements were determined by using Vernier calipers. The formula to calculate volume for a prolate ellipsoid was used to estimate tumor volume (mm^3) from 2-dimensional tumor measurements: Tumor volume (mm^3)=[L×W^2]÷2, where L is the length and it is the longest diameter in mm, and W is the width and it is the shortest diameter in mm of a tumor. Assuming unit density, volume was converted to weight (i.e., 1 mm^3=1 mg).
Treatments were initiated on DPI (Day Post Implantation) 13. In these experiments, the combination therapy groups were treated by co-administering the two drugs at the same time, with no attempt to sequence the treatments.
as §2, §3
The definition and criteria for the evaluation of potentiation and the degree of additivity for the combination therapy were as follows:
Additivity was determined as discussed above by comparing the % of tumor growth inhibition of the monotherapy groups versus those of the combination group as follows: • 1. Determine the % of tumor growth inhibition, as 100-% T/C, for each of the drugs administered as monotherapy at the doses used in the combinations. % T/C was obtained by comparing the mean tumor weight in the treatment groups (T) to the mean tumor weight in the control group (C) (T/C×100%). • 2. The two scores were added together to determine the “expected response” if each agent produced the same response as it did when administered as monotherapy. • 3. This “expected response” was subtracted from the % of tumor growth inhibition determined for the combination therapy group: • a. […] If the resulting number was close to zero, the effect of combining the two drugs was determined as additive. • c.

[5] abbreviates: day 13, gemcitabine 140 IP, erlotinib 100 PO.
[6] abbreviates: day 15, gemcitabine 140 IP, erlotinib 100 PO.
The mark [7] stands for this setting: day 19, gemcitabine 140 IP, erlotinib 100 PO.
The mark [8] stands for this setting: day 22, gemcitabine 140 IP, erlotinib 100 PO.
[9] abbreviates: day 27, gemcitabine 140 IP, erlotinib 100 PO.
Setting [10] is: day 29, gemcitabine 140 IP, erlotinib 100 PO.
[11] abbreviates: day 33, gemcitabine 140 IP, erlotinib 100 PO.
Setting [12] is: day 36, gemcitabine 140 IP, erlotinib 100 PO.

The results in this text go back to patent US20110070232A1, “Combination Therapy with an Antitumor Alkaloid” (Pharma Mar, S.A., priority 2008, published 2011).

Read-outs that look alike come from different tables or passages of the source.

Take `N.N.[Cl][Pt][Cl]` [Cisplatin, cisplatin]: the “% Inhibition” value is −2.2% in assay [1] (day 15); 23.0% in assay [1] (day 20); 24.2% in assay [1] (day 22); 38.2% in assay [1] (day 26); 34.0% in assay [1] (day 29); 55.3% in assay [1] (day 34). Further, the “% Inhibition” value stood at 36.2% in assay [1] (day 40) and 33.0% in assay [1] (day 43). Also, the “% T/C on day” value in assay [1] (day 15) was 102.2%; in assay [1] (day 20), 77.0%; in assay [1] (day 22) it was 75.8%; in assay [1] (day 26) it was 61.8%; in assay [1] (day 29), 66.0%; in assay [1] (day 34), 44.7%. Besides, the “% T/C on day” value in assay [1] (day 40) stood at 63.8%; in assay [1] (day 43), 67.0%.

`Nc1ccn([C@@H]2O[C@H](CO)[C@@H](O)C2(F)F)c(=O)n1` [Gemcitabine, gemcitabine]: the figures for the IC50 in assay [2] and in assay [3] were 1.3 nM and 24 nM, respectively. The “% Inhibition” value was 0.0% in assay [4] (setting [5]); −5.7% in assay [4] (setting [6]); 3.0% in assay [4] (setting [7]); 14.5% in assay [4] (setting [8]); 13.7% in assay [4] (setting [10]); −0.3% in assay [4] (setting [12]). In addition, the “% T/C on day” value in assay [4] (setting [5]) is reported as 100.0%; in assay [4] (setting [6]), 105.7%; in assay [4] (setting [7]), 97.0%; in assay [4] (setting [8]), 85.5%; in assay [4] (setting [9]), 89.5%; in assay [4] (setting [10]) it was 86.3%. Moreover, the “% T/C on day” value is 87.7% in assay [4] (setting [11]) and 100.3% in assay [4] (setting [12]).

As for `C#Cc1cccc(Nc2ncnc3cc(OCCOC)c(OCCOC)cc23)c1` [erlotinib], the “% Inhibition” value is recorded as −1.5% in assay [4] (day 13, erlotinib 50 PO); −3.3% in assay [4] (setting [5]); 3.3% in assay [4] (day 15, erlotinib 50 PO); −15.4% in assay [4] (setting [6]); −13.2% in assay [4] (day 19, erlotinib 50 PO); −22.5% in assay [4] (setting [7]). Further, the “% Inhibition” value in assay [4] (day 22, erlotinib 50 PO) is given as −4.4%; in assay [4] (setting [8]), 3.6%; in assay [4] (day 27, erlotinib 50 PO), −48.6%; in assay [4] (setting [9]), 4.0%; in assay [4] (day 29, erlotinib 50 PO) it was −32.0%; in assay [4] (setting [10]), 3.7%. In addition, the “% Inhibition” value in assay [4] (day 33, erlotinib 50 PO) was −15.4%; in assay [4] (setting [11]), −2.7%; in assay [4] (day 36, erlotinib 50 PO), −17.7%; in assay [4] (setting [12]), −6.0%. Moreover, the “% T/C on day” value in assay [4] (day 13, erlotinib 50 PO) was found to be 101.5%; in assay [4] (setting [5]), 103.3%; in assay [4] (day 15, erlotinib 50 PO) it was 96.7%; in assay [4] (setting [6]) it was 115.4%; in assay [4] (day 19, erlotinib 50 PO) it was 113.2%; in assay [4] (day 22, erlotinib 50 PO), 104.4%. Besides, the “% T/C on day” value in assay [4] (setting [8]) is listed as 96.4%; in assay [4] (day 27, erlotinib 50 PO), 148.6%; in assay [4] (setting [9]), 96.0%; in assay [4] (day 29, erlotinib 50 PO), 132.0%; in assay [4] (setting [10]) it was 96.4%; in assay [4] (day 33, erlotinib 50 PO), 115.3%. In addition, the “% T/C on day” value is recorded as 102.7% in assay [4] (setting [11]); 117.7% in assay [4] (day 36, erlotinib 50 PO); 106.0% in assay [4] (setting [12]).

With `CC(=O)O[C@H]1C(=O)[C@@]2(C)[C@H]([C@H](OC(=O)c3ccccc3)[C@]3(O)C[C@H](OC(=O)[C@H](O)[C@@H](NC(=O)c4ccccc4)c4ccccc4)C(C)=C1C3(C)C)[C@]1(OC(C)=O)CO[C@@H]1C[C@@H]2O` [paclitaxel], the results for the IC50 in assay [2] and in assay [3] were 70 nM and 6 nM, respectively. Moreover, the “% Inhibition” value was 1.3% in assay [1] (day 15); 46.9% in assay [1] (day 20); 54.0% in assay [1] (day 22); 61.4% in assay [1] (day 26); 64.6% in assay [1] (day 29); 60.5% in assay [1] (day 34). Further, the “% Inhibition” value in assay [1] (day 40) is 47.5%; in assay [1] (day 43), 41.0%. Moreover, the “% T/C on day” value was found to be 98.7% in assay [1] (day 15); 53.1% in assay [1] (day 20); 46.0% in assay [1] (day 22); 52.5% in assay [1] (day 40); 59.0% in assay [1] (day 43).

The term % Inhibition denotes the change of the read-out against control, counted positive when it falls. As usually defined, the IC50 is the concentration at which inhibition is half-maximal. Low readings indicate higher potency, high ones lower potency.
